Earlier results in publication PMC6017357, “In Vitro Inhibitory Effects of Synthetic Cannabinoid EAM-2201 on Cytochrome P450 and UDP-Glucuronosyltransferase Enzyme Activities in Human Liver Microsomes” (Molecules : A Journal of Synthetic Chemistry and Natural …, 2018).
Like-named read-outs stand apart in the source and are kept apart here.

How the values were obtained:
[1] = biological target: T1, CYP2C9 (Homo sapiens, UniProt P11712); design: CYP2C8, CYP2C9, CYP2C19 and CYP3A4 activities in ultrapooled human liver microsomes were evaluated; from tissue; host or cells: ultrapooled human liver microsomes; method as in PMID 18838506; conditions: typical CYP2C9 mechanism-based inhibitors; cited from earlier work
[2] = biological target: T2, CYP2C19 (Homo sapiens, UniProt P33261); conditions: human liver microsomes; cited from earlier work
[3] = biological target: T1, CYP2C9; conditions: read-out: Ki, CYP2C9-catalyzed diclofenac hydroxylation; mixed or competitive inhibition, human liver microsomes; cited from earlier work
[4] = human liver microsomes; cited from earlier work
[5] = biological target: T3, CYP3A4 (Homo sapiens, UniProt P08684); conditions: read-out: Ki, CYP3A4 midazolam 1′-hydroxylation; competitive (AM-2201) and noncompetitive (MAM-2201) inhibition, human liver microsomes; cited from earlier work
[6] = biological target: T4, CYP2C8 (Homo sapiens, UniProt P10632); conditions: cited from earlier work; for time-dependent inhibition of CYP2C8 activity: human liver microsomes
T4 sequence (P10632 1-490): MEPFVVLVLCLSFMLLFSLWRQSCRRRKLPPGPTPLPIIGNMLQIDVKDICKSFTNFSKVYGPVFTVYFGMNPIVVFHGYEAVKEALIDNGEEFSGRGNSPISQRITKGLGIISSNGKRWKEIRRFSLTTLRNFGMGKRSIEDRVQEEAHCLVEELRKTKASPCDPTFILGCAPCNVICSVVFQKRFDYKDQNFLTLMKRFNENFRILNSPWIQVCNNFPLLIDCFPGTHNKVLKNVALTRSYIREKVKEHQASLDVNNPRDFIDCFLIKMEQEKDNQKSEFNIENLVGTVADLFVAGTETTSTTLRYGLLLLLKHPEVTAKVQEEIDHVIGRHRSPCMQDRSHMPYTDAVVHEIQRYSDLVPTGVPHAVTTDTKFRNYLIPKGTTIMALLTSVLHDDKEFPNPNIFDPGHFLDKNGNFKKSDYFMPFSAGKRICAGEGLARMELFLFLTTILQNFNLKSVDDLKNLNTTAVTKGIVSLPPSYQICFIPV

[7] = biological target: T5, UGT1A3 (Homo sapiens, UniProt P35503); conditions: human liver microsomes, cited from earlier work; for Ki: read-out: Ki, UGT1A3-catalyzed chenodeoxycholic acid 24-acyl glucuronidation
T5 sequence (P35503 29-534): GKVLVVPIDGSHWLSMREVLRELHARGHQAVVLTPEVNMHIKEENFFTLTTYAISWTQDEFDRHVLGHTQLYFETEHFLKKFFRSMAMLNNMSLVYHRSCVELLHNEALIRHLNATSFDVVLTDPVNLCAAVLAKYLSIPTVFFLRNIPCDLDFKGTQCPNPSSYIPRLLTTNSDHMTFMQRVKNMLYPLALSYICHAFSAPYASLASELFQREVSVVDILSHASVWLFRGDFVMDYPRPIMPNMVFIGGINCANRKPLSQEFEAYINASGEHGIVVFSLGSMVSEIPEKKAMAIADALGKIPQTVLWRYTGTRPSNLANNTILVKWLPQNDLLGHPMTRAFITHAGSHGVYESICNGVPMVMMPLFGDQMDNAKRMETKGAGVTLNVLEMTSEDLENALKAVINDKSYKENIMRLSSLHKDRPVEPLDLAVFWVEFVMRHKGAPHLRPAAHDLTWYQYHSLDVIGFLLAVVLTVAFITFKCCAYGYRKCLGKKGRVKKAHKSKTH

[8] = biological target: T3, CYP3A4; conditions: enzyme source not given; cited from earlier work
[9] = system: human recombinant CYP2C19; conditions: mixed-type inhibition, human recombinant CYP2C19 enzymes; read-out: Ki, [S]-mephenytoin hydroxylation activity; cited from earlier work
[10] = biological target: T4, CYP2C8; design: CYP2C8, CYP2C9, CYP2C19 and CYP3A4 activities in ultrapooled human liver microsomes were evaluated; from tissue; host or cells: ultrapooled human liver microsomes; method as in PMID 15304522; conditions: typical CYP2C8 inhibitors; cited from earlier work
[11] = biological target: T6, UGT1A9 (Homo sapiens, UniProt O60656); design: method as in PMID 23230132; conditions: human liver and intestinal microsomes; cited from earlier work
T6 construct: ultrapooled human liver microsomes (0.2 mg/mL), 5 mM UDPGA; from tissue; host or cells: ultrapooled human liver microsomes
T6 sequence (O60656 26-530): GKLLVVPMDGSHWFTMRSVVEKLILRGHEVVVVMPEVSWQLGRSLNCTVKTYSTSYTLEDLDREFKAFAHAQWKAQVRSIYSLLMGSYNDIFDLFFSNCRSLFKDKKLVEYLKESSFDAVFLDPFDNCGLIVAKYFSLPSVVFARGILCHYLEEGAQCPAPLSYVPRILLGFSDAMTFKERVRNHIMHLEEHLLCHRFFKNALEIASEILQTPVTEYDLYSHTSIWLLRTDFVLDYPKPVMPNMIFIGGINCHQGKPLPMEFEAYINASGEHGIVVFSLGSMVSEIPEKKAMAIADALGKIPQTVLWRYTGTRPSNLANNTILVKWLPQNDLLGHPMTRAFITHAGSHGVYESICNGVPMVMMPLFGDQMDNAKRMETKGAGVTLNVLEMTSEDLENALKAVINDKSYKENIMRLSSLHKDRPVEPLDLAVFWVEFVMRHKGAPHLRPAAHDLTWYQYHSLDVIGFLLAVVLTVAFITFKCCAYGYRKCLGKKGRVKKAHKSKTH

[12] = biological target: T7, UGT2B7 (Homo sapiens, UniProt P16662); design: method as in PMID 23230132; conditions: human liver and intestinal microsomes; cited from earlier work
T7 construct: ultrapooled human liver microsomes (0.2 mg/mL), 5 mM UDPGA; from tissue; host or cells: ultrapooled human liver microsomes
T7 sequence (P16662 24-529): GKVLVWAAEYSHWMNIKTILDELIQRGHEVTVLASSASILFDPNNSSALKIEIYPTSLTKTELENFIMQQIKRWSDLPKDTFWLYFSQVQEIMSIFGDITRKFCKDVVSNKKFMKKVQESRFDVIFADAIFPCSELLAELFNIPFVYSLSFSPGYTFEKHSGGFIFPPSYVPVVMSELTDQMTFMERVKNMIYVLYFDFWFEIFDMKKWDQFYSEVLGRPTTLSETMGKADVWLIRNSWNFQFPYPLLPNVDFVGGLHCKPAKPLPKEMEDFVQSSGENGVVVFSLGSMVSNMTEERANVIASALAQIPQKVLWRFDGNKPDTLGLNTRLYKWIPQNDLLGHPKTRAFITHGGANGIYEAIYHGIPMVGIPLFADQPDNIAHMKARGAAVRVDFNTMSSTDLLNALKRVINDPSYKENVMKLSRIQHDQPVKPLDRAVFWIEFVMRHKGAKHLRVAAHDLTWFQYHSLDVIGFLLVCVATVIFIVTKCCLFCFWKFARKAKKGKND

[13] = system: human recombinant CYP3A4; conditions: competitive inhibition, human recombinant CYP3A4 enzymes; read-out: Ki, CYP3A4-catalyzed diltiazem N-demethylation; cited from earlier work
[14] = biological target: T3, CYP3A4; conditions: human liver microsomes, time-dependent inhibitors with reported clinical drug–drug interaction; cited from earlier work
[15] = biological target: T2, CYP2C19; conditions: typical mechanism-based CYP2C19 inhibitors; cited from earlier work

T1 sequence (P11712 whole entry): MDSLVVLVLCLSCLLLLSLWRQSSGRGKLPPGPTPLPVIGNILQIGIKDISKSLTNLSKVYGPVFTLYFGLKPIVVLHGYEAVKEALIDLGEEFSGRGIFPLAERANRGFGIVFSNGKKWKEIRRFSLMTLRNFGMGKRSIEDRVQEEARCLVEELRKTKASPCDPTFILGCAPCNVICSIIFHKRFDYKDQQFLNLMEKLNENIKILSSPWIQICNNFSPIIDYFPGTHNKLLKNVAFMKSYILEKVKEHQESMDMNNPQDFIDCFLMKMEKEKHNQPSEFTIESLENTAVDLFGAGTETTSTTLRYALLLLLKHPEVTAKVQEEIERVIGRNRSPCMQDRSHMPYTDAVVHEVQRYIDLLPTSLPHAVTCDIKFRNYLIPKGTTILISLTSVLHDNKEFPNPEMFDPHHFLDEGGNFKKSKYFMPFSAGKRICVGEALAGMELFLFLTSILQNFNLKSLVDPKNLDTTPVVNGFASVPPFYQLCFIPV
T3 sequence (P08684 whole entry): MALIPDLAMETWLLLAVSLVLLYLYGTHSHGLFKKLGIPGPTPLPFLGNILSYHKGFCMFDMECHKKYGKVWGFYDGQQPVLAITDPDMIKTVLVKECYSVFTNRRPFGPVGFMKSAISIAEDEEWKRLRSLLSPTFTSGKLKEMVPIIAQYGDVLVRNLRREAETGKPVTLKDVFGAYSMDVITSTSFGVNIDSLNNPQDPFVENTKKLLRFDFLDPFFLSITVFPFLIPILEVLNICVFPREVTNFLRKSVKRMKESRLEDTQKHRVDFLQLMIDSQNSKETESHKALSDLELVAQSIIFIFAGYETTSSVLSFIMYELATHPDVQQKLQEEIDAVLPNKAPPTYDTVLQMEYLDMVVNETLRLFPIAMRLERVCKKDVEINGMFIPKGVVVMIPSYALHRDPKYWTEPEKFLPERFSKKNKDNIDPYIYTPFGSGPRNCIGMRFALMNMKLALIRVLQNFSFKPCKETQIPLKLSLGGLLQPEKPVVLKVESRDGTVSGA
T2 sequence (P33261 whole entry): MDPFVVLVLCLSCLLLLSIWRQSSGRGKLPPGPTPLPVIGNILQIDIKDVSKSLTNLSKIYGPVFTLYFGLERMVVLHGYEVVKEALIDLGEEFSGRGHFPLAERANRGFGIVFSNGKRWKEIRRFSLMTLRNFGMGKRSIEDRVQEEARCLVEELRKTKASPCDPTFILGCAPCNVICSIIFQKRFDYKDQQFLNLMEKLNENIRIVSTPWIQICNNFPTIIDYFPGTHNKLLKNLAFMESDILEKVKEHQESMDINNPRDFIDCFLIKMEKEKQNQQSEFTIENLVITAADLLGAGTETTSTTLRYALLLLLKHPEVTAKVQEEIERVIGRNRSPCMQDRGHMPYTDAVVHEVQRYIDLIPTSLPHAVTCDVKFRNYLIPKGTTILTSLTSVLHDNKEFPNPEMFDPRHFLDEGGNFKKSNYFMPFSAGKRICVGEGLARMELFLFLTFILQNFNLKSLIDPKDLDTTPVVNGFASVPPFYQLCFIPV

## CC(C(=O)O)c1ccc(C(=O)c2cccs2)cc1 (racemic) [(±)-suprofen]
[1]
  inactivation efficiency (kinact/Ki), CYP2C9: 18.3 M⁻¹ s⁻¹

## O=C(c1cccc2ccccc12)c1cn(CCCCCF)c2ccccc12 [AM-2201]
[2]
  inhibition of CYP2C19-catalyzed [S]-mephenytoin hydroxylation: did not inhibit
[3]
  Ki: 3.9 µM
[4]
  number of metabolites: 19 metabolites
[5]
  Ki: 4 µM
[6]
  inactivation efficiency (kinact/Ki), CYP2C8: 430 M⁻¹ s⁻¹
  time-dependent inhibition of CYP2C8 activity: exhibited time-dependent inhibition
[7]
  Ki: 4.3 µM

## Cc1ccc(C(=O)c2cn(CCCCCF)c3ccccc23)c2ccccc12 [MAM-2201, (1-(5-fluoropentyl)-1H-indol-3-yl)(4-methyl-1-naphthalenyl)-methanone]
[2]
  inhibition of CYP2C19-catalyzed [S]-mephenytoin hydroxylation: did not inhibit
[3]
  Ki: 5.6 µM
[4]
  number of metabolites: 19 metabolites
[5]
  Ki: 5.4 µM
[6]
  inactivation efficiency (kinact/Ki), CYP2C8: 1230 M⁻¹ s⁻¹
  time-dependent inhibition of CYP2C8 activity: exhibited time-dependent inhibition
[7]
  Ki: 5 µM

## CCCCCc1cc(O)c2c(c1)OC(C)(C)[C@@H]1CCC(C)=C[C@@H]21 [THC, ∆9-tetrahydrocannabinol]
[3]
  Ki: 1.31 µM
[8]
  inhibition of CYP3A4 activity: did not inhibit
[9]
  Ki: 1.93 µM

## CCCCc1oc2ccccc2c1C(=O)c1cc(I)c(OCCN(CC)CC)c(I)c1 [amiodarone]
[10]
  inactivation efficiency (kinact/Ki), CYP2C8: 9.5 M⁻¹ s⁻¹

## C=C(C)[C@@H]1CCC(C)=C[C@H]1c1c(O)cc(CCCCC)cc1O [cannabidiol]
[9]
  Ki: 0.793 µM
[11]
  inhibition of UGT1A9 activity: inhibited
[12]
  inhibition of UGT2B7 activity: inhibited
[13]
  Ki: 1 µM

## CCCCCc1cc(O)c2c(c1)OC(C)(C)c1ccc(C)cc1-2 [cannabinol]
[8]
  inhibition of CYP3A4 activity: did not inhibit
[11]
  inhibition of UGT1A9 activity: inhibited
[12]
  inhibition of UGT2B7 activity: inhibited

## CC[C@H]1OC(=O)[C@H](C)[C@@H](O[C@H]2C[C@@](C)(OC)[C@@H](O)[C@H](C)O2)[C@H](C)[C@@H](O[C@@H]2O[C@H](C)C[C@H](N(C)C)[C@H]2O)[C@](C)(OC)C[C@@H](C)C(=O)[C@H](C)[C@@H](O)[C@]1(C)O [clarithromycin]
[14]
  inactivation efficiency (kinact/Ki), CYP3A4: 46.7 M⁻¹ s⁻¹

## COC(=O)[C@H](c1ccccc1Cl)N1CCc2sccc2C1 [clopidogrel]
[15]
  inactivation efficiency (kinact/Ki), CYP2C19: 65 M⁻¹ s⁻¹

## CC1(C)[C@@H](O)CC[C@]2(C)[C@H]3C(=O)C=C4[C@@H]5C[C@@](C)(C(=O)O)CC[C@]5(C)CC[C@@]4(C)[C@]3(C)CC[C@@H]12 [glycyrrhetinic acid]
[7]; read-out: IC50, UGT1A3-catalyzed chenodeoxycholic acid 24-acyl glucuronidation, selective UGT1A3 inhibitor
  IC50: 4.3 µM

## NNCCc1ccccc1 [phenelzine]
[10]
  inactivation efficiency (kinact/Ki), CYP2C8: 52.2 M⁻¹ s⁻¹

## O=C(O)COc1ccc(C(=O)c2cccs2)c(Cl)c1Cl [tienilic acid]
[1]
  inactivation efficiency (kinact/Ki), CYP2C9: 142 M⁻¹ s⁻¹
